# Experimental data taken from patent publication US10259818B2, “Bicyclic azaheterocyclobenzylamines as PI3K inhibitors” (Incyte Corporation, priority 2012, dated 2019).
# Counter-ions that a name gives are not always drawn.
# Test system: SUDHL-6 cell line (diffuse large B cell lymphoma)
# Assay: SUDHL-6 cell proliferation assay (Example B3)
# Assay type: cell-based
# Conditions: Homo sapiens, SU-DHL-6, 72 h, SUDHL-6 cells, 3 days, Cell Titer-GLO
# Description: Example B3: SUDHL-6 Cell Proliferation Assay
# SUDHL-6 cell line (diffuse large B cell lymphoma) was purchased from ATCC (Manassas, Va.) and maintained in the culture medium recommended (RPMI and 10% FBS). To measure the anti-proliferation activity of the compounds through ATP quantitation, the SUDHL-6 cells was plated with the culture medium (5000 cells/well/per 200 μl) into 96-well polystyrene clear black tissue culture plate (Greiner-bio-one through VWR, NJ) in the presence or absence of a concentration range of test compounds. After 3 days, Cell Titer-GLO Luminescent (Promega, Madison, Wis.) cell culture agent was added to each well for 10 minutes at room temperature to stabilize the luminescent signal. This determines the number of viable cells in culture based on quantitation of the ATP present, which signals the presence of metabolically active cells. Luminescence was measured with the TopCount 384 (Packard Bioscience through Perkin Elmer, Boston, Mass.). […] IC50 data for the Examples is presented in Table 4 determined by the assay of Example B3.
row,IC50 [nM],SMILES
1,≤ 500,"Cc1nn(C(C)c2cc(Cl)c(C#N)c3c2OC(C)CN(CC#N)C3)c2ncnc(N)c12 (single isomer, unassigned) [Example 108, 9-[1-(4-amino-3-methyl-1H-pyrazolo[3,4-d]pyrimidin-1-yl)ethyl]-7-chloro-4-(cyanomethyl)-2-methyl-2,3,4,5-tetrahydro-1,4-benzoxazepine-6-carbonitrile]"
2,≤ 500,"Cc1nn(C(C)c2cc(Cl)c(C#N)c3c2OC(C)CN(CC(N)=O)C3)c2ncnc(N)c12 (single isomer, unassigned) [Example 110, 2-[9-[1-(4-amino-3-methyl-1H-pyrazolo[3,4-d]pyrimidin-1-yl)ethyl]-7-chloro-6-cyano-2-methyl-2,3-dihydro-1,4-benzoxazepin-4(5H)-yl]acetamide]"
3,≤ 500,"COCCN1Cc2c(C#N)c(Cl)cc(C(C)n3nc(C)c4c(N)ncnc43)c2OC(C)C1 (single isomer, unassigned) [Example 112, 9-[1-(4-amino-3-methyl-1H-pyrazolo[3,4-d]pyrimidin-1-yl)ethyl]-7-chloro-4-(2-methoxyethyl)-2-methyl-2,3,4,5-tetrahydro-1,4-benzoxazepine-6-carbonitrile]"
4,≤ 500,"CNC(=O)C1CC(N2Cc3c(C#N)c(Cl)cc(C(C)n4nc(C)c5c(N)ncnc54)c3OC(C)C2)C1 (single isomer, unassigned) [Example 114, 3-[9-[1-(4-amino-3-methyl-1H-pyrazolo[3,4-d]pyrimidin-1-yl)ethyl]-7-chloro-6-cyano-2-methyl-2,3-dihydro-1,4-benzoxazepin-4(5H)-yl]-N-methylcyclobutane-carboxamide]"
5,≤ 500,"Cc1c(Cl)cc(C(C)n2nc(C)c3c(N)ncnc32)c2c1CN(C1CN(C(=O)OC(C)(C)C)C1)CCO2 (stereo not shown) [Example 3, tert-Butyl 3-[9-[1-(4-amino-3-methyl-1H-pyrazolo[3,4-d]pyrimidin-1-yl)ethyl]-7-chloro-6-methyl-2,3-dihydro-1,4-benzoxazepin-4(5H)-yl]azetidine-1-carboxylate]"
6,≤ 500,"CC(=O)N1CC(N2CCOc3c(C(C)n4nc(C)c5c(N)ncnc54)cc(Cl)c(C)c3C2)C1 (stereo not shown) [Example 4, 1-{1-[4-(1-Acetylazetidin-3-yl)-7-chloro-6-methyl-2,3,4,5-tetrahydro-1,4-benzoxazepin-9-yl]ethyl}-3-methyl-1H-pyrazolo[3,4-d]pyrimidin-4-amine]"
7,≤ 500,"Cc1c(Cl)cc(C(C)n2nc(C)c3c(N)ncnc32)c2c1CN(C1CCC1)CCO2 (stereo not shown) [Example 5, 1-[1-(7-Chloro-4-cyclobutyl-6-methyl-2,3,4,5-tetrahydro-1,4-benzoxazepin-9-yl)ethyl]-3-methyl-1H-pyrazolo[3,4-d]pyrimidin-4-amine bis(trifluoroacetate)]"
8,≤ 500,"Cc1c(Cl)cc(C(C)n2nc(C)c3c(N)ncnc32)c2c1CN(C1CCCC1)CCO2 (stereo not shown) [Example 6, 1-[1-(7-Chloro-4-cyclopentyl-6-methyl-2,3,4,5-tetrahydro-1,4-benzoxazepin-9-yl)ethyl]-3-methyl-1H-pyrazolo[3,4-d]pyrimidin-4-amine bis(trifluoroacetate)]"
9,≤ 500,"Cc1c(Cl)cc(C(C)n2nc(C)c3c(N)ncnc32)c2c1CN(C(C)C)CCO2 (stereo not shown) [Example 10, 1-[1-(7-Chloro-4-isopropyl-6-methyl-2,3,4,5-tetrahydro-1,4-benzoxazepin-9-yl)ethyl]-3-methyl-1H-pyrazolo[3,4-d]pyrimidin-4-amine bis(trifluoroacetate)]"
10,≤ 500,"Cc1c(Cl)cc(C(C)n2nc(C)c3c(N)ncnc32)c2c1CN(C(=O)CC#N)CCO2 (stereo not shown) [Example 12, 3-[9-[1-(4-Amino-3-methyl-1H-pyrazolo[3,4-d]pyrimidin-1-yl)ethyl]-7-chloro-6-methyl-2,3-dihydro-1,4-benzoxazepin-4(5H)-yl]-3-oxopropanenitrile trifluoroacetate]"
11,≤ 500,"Cc1c(Cl)cc(C(C)n2nc(C)c3c(N)ncnc32)c2c1CN(S(C)(=O)=O)CCO2 (stereo not shown) [Example 13, 1-{1-[7-Chloro-6-methyl-4-(methylsulfonyl)-2,3,4,5-tetrahydro-1,4-benzoxazepin-9-yl]ethyl}-3-methyl-1H-pyrazolo[3,4-d]pyrimidin-4-amine Trifluoroacetate]"
12,500 to 1000,"Cc1c(Cl)cc(C(C)n2nc(C)c3c(N)ncnc32)c2c1CN(S(=O)(=O)C1CC1)CCO2 (stereo not shown) [Example 18, 1-{1-[7-Chloro-4-(cyclopropylsulfonyl)-6-methyl-2,3,4,5-tetrahydro-1,4-benzoxazepin-9-yl]ethyl}-3-methyl-1H-pyrazolo[3,4-d]pyrimidin-4-amine Trifluoroacetate]"
13,≤ 500,"CCC(=O)N1CCOc2c(C(C)n3nc(C)c4c(N)ncnc43)cc(Cl)c(C)c2C1 (stereo not shown) [Example 20, 1-[1-(7-Chloro-6-methyl-4-propionyl-2,3,4,5-tetrahydro-1,4-benzoxazepin-9-yl)ethyl]-3-methyl-1H-pyrazolo[3,4-d]pyrimidin-4-amine Trifluoroacetate]"
14,≤ 500,"COCC(=O)N1CCOc2c(C(C)n3nc(C)c4c(N)ncnc43)cc(Cl)c(C)c2C1 (stereo not shown) [Example 21, 1-{1-[7-Chloro-4-(methoxyacetyl)-6-methyl-2,3,4,5-tetrahydro-1,4-benzoxazepin-9-yl]ethyl}-3-methyl-1H-pyrazolo[3,4-d]pyrimidin-4-amine Trifluoroacetate]"
15,≤ 500,"Cc1c(Cl)cc(C(C)n2nc(C)c3c(N)ncnc32)c2c1CN(c1ncc(C#N)s1)CCO2 (stereo not shown) [Example 23, 2-[9-[1-(4-Amino-3-methyl-1H-pyrazolo[3,4-d]pyrimidin-1-yl)ethyl]-7-chloro-6-methyl-2,3-dihydro-1,4-benzoxazepin-4(5H)-yl]-1,3-thiazole-5-carbonitrile Trifluoroacetate]"
16,500 to 1000,"Cc1c(Cl)cc(C(C)n2nc(C)c3c(N)ncnc32)c2c1CN(c1cnccn1)CCO2 (stereo not shown) [Example 24, 1-[1-(7-Chloro-6-methyl-4-pyrazin-2-yl-2,3,4,5-tetrahydro-1,4-benzoxazepin-9-yl)ethyl]-3-methyl-1H-pyrazolo[3,4-d]pyrimidin-4-amine bis(trifluoroacetate)]"
17,≤ 500,"CC(=O)N1CC(N2CCOc3c(C(C)n4nc(C)c5c(N)ncnc54)cc(Cl)c(F)c3C2)C1 (stereo not shown) [Example 34, 1-{1-[4-(1-Acetylazetidin-3-yl)-7-chloro-6-fluoro-2,3,4,5-tetrahydro-1,4-benzoxazepin-9-yl]ethyl}-3-methyl-1H-pyrazolo[3,4-d]pyrimidin-4-amine]"
18,≤ 500,"Cc1nn(C(C)c2cc(Cl)c(F)c3c2O[C@@H](C)CN(C2CC(C(=O)O)C2)C3)c2ncnc(N)c12 (stereo partly shown) [Example 41, 3-[9-[1-(4-Amino-3-methyl-1H-pyrazolo[3,4-d]pyrimidin-1-yl)ethyl]-7-chloro-6-fluoro-2-methyl-2,3-dihydro-1,4-benzoxazepin-4(5H)-yl]cyclobutanecarboxylic Acid Trifluoroacetate]"
19,≤ 500,"CC(=O)N1CC(N2CCOc3c(C(C)n4nc(C)c5c(N)ncnc54)cc(Cl)c(C#N)c3C2)C1 (stereo not shown) [Example 46, 4-(1-Acetylazetidin-3-yl)-9-[1-(4-amino-3-methyl-1H-pyrazolo [3,4-d]pyrimidin-1-yl)ethyl]-7-chloro-2,3,4,5-tetrahydro-1,4-benzoxazepine-6-carbonitrile]"
20,≤ 500,"Cc1nn(C(C)c2cc(Cl)c(C#N)c3c2OCCN(C2CN(CCO)C2)C3)c2ncnc(N)c12 (stereo not shown) [Example 47, 9-[1-(4-amino-3-methyl-1H-pyrazolo[3,4-d]pyrimidin-1-yl)ethyl]-7-chloro-4-[1-(2-hydroxyethyl)azetidin-3-yl]-2,3,4,5-tetrahydro-1,4-benzoxazepine-6-carbonitrile]"
21,≤ 500,"Cc1nn(C(C)c2cc(Cl)c(C#N)c3c2O[C@@H](C)CN(C2CN(CCO)C2)C3)c2ncnc(N)c12 (stereo partly drawn) [Example 56, (2S)-9-[1-(4-Amino-3-methyl-1H-pyrazolo[3,4-d]pyrimidin-1-yl)ethyl]-7-chloro-4-[1-(2-hydroxyethyl)azetidin-3-yl]-2-methyl-2,3,4,5-tetrahydro-1,4-benzoxazepine-6-carbonitrile]"

# Same assay, conditions: SUDHL-6 cells, 3 days, Cell Titer-GLO
row,IC50 [nM],SMILES
1,≤ 500,"CNC(=O)C1CC(N2Cc3c(C#N)c(Cl)cc(C(C)n4nc(C)c5c(N)ncnc54)c3OC(C)C2)C1 (single isomer, unassigned) [Example 115, 3-[9-[1-(4-amino-3-methyl-1H-pyrazolo[3,4-d]pyrimidin-1-yl)ethyl]-7-chloro-6-cyano-2-methyl-2,3-dihydro-1,4-benzoxazepin-4(5H)-yl]-N-methylcyclobutane-carboxamide]"
2,≤ 500,"Cc1nn(C(C)c2cc(Cl)c(F)c3c2O[C@@H](C)CN(C2CC(C(=O)O)C2)C3)c2ncnc(N)c12 (stereo partly shown) [Example 42, 3-[9-[1-(4-Amino-3-methyl-1H-pyrazolo[3,4-d]pyrimidin-1-yl)ethyl]-7-chloro-6-fluoro-2-methyl-2,3-dihydro-1,4-benzoxazepin-4(5H)-yl]cyclobutanecarboxylic Acid Trifluoroacetate]"
3,≤ 500,"Cc1nn(C(C)c2cc(Cl)c(C#N)c3c2OC(C)CN(C2CN(CC(N)=O)C2)C3)c2ncnc(N)c12 (stereo not shown) [Example 51, 2-{3-[9-[1-(4-Amino-3-methyl-1H-pyrazolo[3,4-d]pyrimidin-1-yl)ethyl]-7-chloro-6-cyano-2-methyl-2,3-dihydro-1,4-benzoxazepin-4(5H)-yl]azetidin-1-yl}acetamide]"
4,≤ 500,"Cc1nn(C(C)c2cc(Cl)c(C#N)c3c2O[C@@H](C)CN(C2CN(CCO)C2)C3)c2ncnc(N)c12 (stereo partly drawn) [Example 57, (2S)-9-[1-(4-Amino-3-methyl-1H-pyrazolo[3,4-d]pyrimidin-1-yl)ethyl]-7-chloro-4-[1-(2-hydroxyethyl)azetidin-3-yl]-2-methyl-2,3,4,5-tetrahydro-1,4-benzoxazepine-6-carbonitrile]"
